Where a SMILES comes first, the peptide text is derived from it. The star is where a group is joined. Cbz = O=C(OCc1ccccc1)*
Tests used:
GSK-3β (beta) = experiment: Addition of p38 MAPK inhibitor and AMPK inhibitor: phospho-GSK-3β western blotting; assay type: cell-based, rat; details: 5 μM inhibitor 10 min, then adiponectin 1 μg/mL 30 min
Protocol: The aforementioned B103 neuroblastoma cells (α (alpha)S) were inoculated on the 6-well plate and cultured to a state of about 80-90% confluence. After washing with PBS, the aforementioned cells were further cultured for 10 min in an inhibition test medium prepared by adding either 5 μM p38 MAPK inhibitor (SB203580, Promega) or 5 μM AMPK inhibitor (Compound C, Calbiochem) to a serum-free medium. As a control, DMSO was added to a serum-free medium instead of the aforementioned inhibitors. Later, either recombinant human adiponectin (1 μg/mL, trimer, PROSPEC) or PBS was added so as to culture the cells for 30 min. The cells collected were then lysed with the aforementioned cell lysis solution. Supernatants were collected after performing centrifugation at 100,000×g for 30 min, and then subjected to western blotting. Here, western blotting was performed in accordance with the procedures described in example 1.
When performing western blotting to evaluate signal transduction pathways, the anti-phospho-GSK-3β (beta) (Ser9) antibody (D85E12, Cell Signaling Technology), the anti-GSK-3β (beta) antibody (BD Biosciences) and the anti-β (beta)-actin mouse monoclonal antibody (C-15, Sigma-Aldrich Japan Inc.) were used as primary antibodies after being appropriately diluted. Further, the HRP labeled anti-mouse IgG antibody (DAKO) was used as a secondary antibody after being appropriately diluted.

B103 neuroblastoma cells [1] = experiment: Induction of adiponectin mRNA expression by proteasome inhibition (RT-PCR); assay type: cell-based, rat; details: 10 μM, six hours, regardless of the presence of α-synuclein expression
Protocol: RT-PCR was performed in accordance with a method of Fujita et al. (Fujita et al., Nat. Commun. 1:110 (2010)). Total RNA was extracted from the frozen brain samples of the α (alpha)S tg mice and the non tg mice by ISOGEN (NIPPON GENE CO., LTD.), followed by performing DNase (DNase 1, Invitrogen, Life Technologies Japan Ltd.) treatment at 37° C. for 30 min. Here, cDNA was synthesized from the total RNA of 2.5 μg, using Superscript III First-Strand Synthesis system (Invitrogen, Life Technologies Japan Ltd.).
A reaction condition of PCR was as follows. That is, PCR was at first performed at 94° C. for 5 min, followed by repeating 35 times a cycle of: 95° C. for 30 sec; 55° C. for 30 sec; and 72° C. for 60 sec. Subsequently, PCR was further performed at 72° C. for 10 min before reaching a stationary state and being left standing at 4° C. PCR products were electrophoresed in 1.2% agarose gel. With regard to an mRNA amount of each gene, concentrations of ethidium bromide-stained bands of the PCR products were quantitated by densitometer (ATTO). mRNA amounts of adiponectin were standardized by mRNA amounts of cyclophilin A.
MG132 (Calbiochem, Merck & Co., Inc.) was used as a proteasome inhibitor. […] Six hours later, the aforementioned cells were collected, and expression of adiponectin mRNA was measured by RT-PCR.

[2] = test system: B103 neuroblastoma cells (α (alpha)S); experiment: Effect of adiponectin siRNA on aggregate state of α-synuclein (western blotting of soluble fractions); assay type: cell-based, rat; details: B103 neuroblastoma cells (αS), siRNA transduced, cultivated 72 hours, western blot
Protocol: (§1) Rat adiponectin sense strand RNA: 5′-CAAUGACUCUACAUUUACAtt-3′ (SEQ. No. 15), antisense strand RNA: 5′-UGUAAAUGUAGAGUCAUUGtt-3′ (SEQ. No. 16), sense strand RNA of random sequence in control experiment: 5′-UCUUAAUCGCGUAUAAGGCtt-3′ (SEQ. No. 17) and antisense strand RNA: 5′-GCCUUAUACGCGAUUAAGAtt-3′ (SEQ. No. 18) were prepared utilizing Takara siRNA Design Support System (http://www.takara-bio.co.jp/rnai/) (Takara Bio Inc.). The B103 neuroblastoma cells (α (alpha)S) and the B103 neuroblastoma cells (vector) for the control experiment were cultured using a commercially available 6-well plate, and were transfected using Lipofectamine 2000 (Invitrogen, Life Technologies Japan Ltd.) in a state of 30-50% confluence. After performing transfection for six hours, a medium was replaced with a DMEM containing 10% FBS. After performing cultivation for 24 hours, the medium was then replaced with a serum-free DMEM medium so as to avoid effects of adiponectin. After performing cultivation for another three days, transfected B103 neuroblastoma cells were collected so as to be subjected to a detection of an aggregate state of α (alpha)-synuclein and a measurement of proteasomal activity. […]
Extraction of each soluble fraction and quantification of protein in each soluble fraction by western blotting were performed in accordance with procedures similar to those of example 1 through example 3.

[3] = test system: B103 neuroblastoma cells (α (alpha)S); experiment: Thioflavin T staining of adiponectin siRNA-transduced cells; assay type: cell-based, rat; details: α-synuclein expressing neuroblastoma cells with adiponectin expression suppressed
Protocol: as §1, with “activity. Further, transfection to B103 neuroblastoma cells for thioflavin T staining were carried out on a polylysine-coated cover glass.” for “activity.”

B103 neuroblastoma cells [4] = experiment: Measurement of proteasomal activity in siRNA-transduced cells; assay type: cell-based, rat; details: compared to cells transduced with siRNA of random sequence
Protocol: as §1, with “FBS.” for “FBS. After performing cultivation for 24 hours, the medium was then replaced with a serum-free DMEM medium so as to avoid effects of adiponectin. After performing cultivation for another three days, transfected B103 neuroblastoma cells were collected so as to be subjected to a detection of an aggregate state of α (alpha)-synuclein and a measurement of proteasomal activity.”
siRNA-transduced B103 neuroblastoma cells were collected with HEPES buffer (50 mM HEPES (pH 7.4), 10 mM EDTA, 10 mM NaCl). […] Protein concentrations were measured, and […] thereof was dissolved in HEPES buffer containing 40 μM of benzyloxycarbonyl-Leu-Leu-Glu-amidomethylcoumarin fluorescent proteasome substrate (Chemicon, Japan Millipore Corporation). Proteasomal activity was calculated as follows. That is, a disintegrated amount of substrate was measured by Berthold Mithras LB940 microplate reader (Berthold Japan co. ltd.), according to time for one hour and at 37° C. […]

α (alpha)S tg mouse [5] = experiment: Continuous nasal administration of globular adiponectin: α-synuclein aggregation in various fractions; assay type: in vivo; details: cerebral cortex, gAPN-administered group
Protocol: (§2) An α (alpha)S tg mouse and a non tg mouse were distinguished in accordance with the method described in example 2. Globular adiponectin (gAPN) was nasally administered to the α (alpha)S tg mouse and the non tg mouse on days 0, 3, 6, 9, 12, 15, 18 and 21. Further, as a control, PBS was nasally administered to the α (alpha)S tg mouse and the non tg mouse on days 0, 3, 6, 9, 12, 15, 18 and 21. When performing nasal administration, 10 μL of the transmucosal absorption enhancer (PBS containing 5 mg/mL poly-L-arginine hydrochloride (molecular mass>70,000 (Sigma-Aldrich Japan Inc.)) was nasally administered to the mouse. Half an hour later, either 10 μL of globular adiponectin (PBS containing 1 mg/mL gAPN (Prospec)) or 10 μL of PBS was nasally administered to the mouse. On day 22 of nasal administration, the aforementioned mouse was euthanized in accordance with the method described in example 2, followed by collecting brain samples thereof. The hemispheres used for pathological analysis were immersion-fixed using 4% paraformaldehyde, followed by being embedded in paraffin. The other hemispheres used for western blotting were frozen by liquid nitrogen and stored at −80° C.
The TBS soluble fraction, the SDS soluble fraction and the formic acid soluble fraction were prepared from the cerebral cortex of the brain sample in accordance with the method described in example 1. […]

α (alpha)S tg mouse [6] = experiment: Continuous nasal administration of globular adiponectin: GFAP in surfactant insoluble fraction; assay type: in vivo; details: versus gAPN non-administration group
Protocol: as §2, with “C. […]” for “C.”

α (alpha)S tg mouse [7] = experiment: Continuous nasal administration of globular adiponectin: immunohistochemical staining of brain; assay type: in vivo
Protocol: as §2
Immunohistochemical staining was performed in a standard manner known to those skilled in the art. Briefly, thin sliced sections were prepared at a thickness of 4 μm, using the brain samples embedded in paraffin. After being deparaffinized, the thin sliced sections were placed in a 10 mM sodium citrate buffer solution (pH 6.0) to be subjected to an antigen activation treatment (95° C., 10 min) using microwave (MW). After completing the antigen activation treatment, the thin sliced sections were further treated for 15 min with methanol containing 3% hydrogen peroxide. After washing, the thin sliced sections were then subjected to blocking for 30 min, using 10% goat normal serum (Vector Laboratories, Inc.)/TBS (25 mM Tris-HCl (pH 7.5), 0.15 M NaCl). Later, the thin sliced sections were incubated overnight at 4° C. with a primary antibody (anti-α (alpha)-synuclein antibody or anti-GFAP antibody) diluted with 0.1% bovine serum albumin (BSA)/TBS. After washing, the thin sliced sections were further incubated for 20 min at room temperature with a secondary antibody (biotin labeled anti-mouse IgG antibody (Vector Laboratories, Inc.)) diluted with 0.1% BSA/TBS. When performing staining, there were used ABC kit (Vector Laboratories, Inc.) and 3,3′-diaminobenzidine tetrahydrochloride (DAB). After completing staining, the thin sliced sections were observed using a microscope.

[8] = nasal, days 0-21 every 3 days, brain on day 22

For `c1cc(-c2cnn3cc(-c4ccc(OCCN5CCCCC5)cc4)cnc23)ccn1` [Compound C], the “phosphorylated GSK-3β in surfactant soluble fraction” value (GSK-3β (beta)) was “detected”.

In the case of `CC(C)C[C@@H](C=O)NC(=O)[C@H](CC(C)C)NC(=O)[C@H](CC(C)C)NC(=O)OCc1ccccc1` [MG132] (Cbz-Leu-Leu-Leu-aldehyde), the “induction of adiponectin expression (mRNA)” value (B103 neuroblastoma cells [1]) is reported as “increased”.

`C[S+]([O-])c1ccc(-c2nc(-c3ccncc3)c(-c3ccc(F)cc3)[nH]2)cc1` (stereo not drawn) [SB203580] was tested, and the “phosphorylated GSK-3β in surfactant soluble fraction” value (GSK-3β (beta)) was “not detected”.

In the case of “APN siRNA: Rat adiponectin siRNA, sense strand SEQ. No. 15, antisense strand SEQ. No. 16 (sense CAAUGACUCUACAUUUACATT; antisense UGUAAAUGUAGAGUCAUUGTT; RNA strands with tt 3' overhangs, overhang chemistry not given here, further chemistry not given here)”, the “α-synuclein in the formic acid soluble fraction” value [2] is reported as “also detected”, the “thioflavin T staining (aggregation of protein)” value [3] is reported as “thioflavin T-positive” and the proteasomal activity (B103 neuroblastoma cells [4]) is reported as “low”.

B1: gAPN: Globular adiponectin (Prospec); adiponectin isoform whose N-terminal collagen-like domain has been cut by protease (protein, listed as Homo sapiens)
chain: PGEGAYVYRSAFSVGLETYVTIPNMPIRFTKIFYNQQNHYDGSTGKFHCNIPGLYYFAYHITVYMKDVKVSLFKKDKAMLFTYDQYQENNVDQASGSVLLHLEVGDQVWLQVYGEGERNGLYADNDNDSTFTGFLLYHDTN
modifications: human adiponectin globular domain
notes: Globular adiponectin (Prospec); adiponectin isoform whose N-terminal collagen-like domain has been cut by protease
With B1 the “amount of α-synuclein aggregates in SDS soluble fraction” value (α (alpha)S tg mouse [5]) was “decreased significantly”, the “GFAP in surfactant insoluble fraction” value (α (alpha)S tg mouse [6]) was “observed less” and the adverse effects (α (alpha)S tg mouse [7]; continuous nasal administration) was “not observed particularly”. The “growth of astrocyte in cerebral cortex” value (α (alpha)S tg mouse [7]; [8]) was “hardly detected”, the “α-synuclein aggregates in olfactory bulb” value (α (alpha)S tg mouse [7]; [8]) was “hardly detected” and the “α-synuclein aggregates in thalamus” value (α (alpha)S tg mouse [7]; [8]) was “hardly detected”.

From US9101618B2, “Method for treating and/or preventing neurodegenerative disease by adiponectin receptor agonist” (TOKYO METROPOLITAN INSTITUTE OF MEDICAL SCIENCE, priority 2011, dated 2015)
